Data published in ChEMBL document CHEMBL1141278, “Naamidines H and I, cytotoxic imidazole alkaloids from the Indonesian marine sponge Leucetta chagosensis” (J Nat Prod, 2007).
Values after ≈ are worked out from the molar mass of the structure shown. Active and inactive are the calls of the source. The rule behind the calls is not given here.

How the values were obtained:
Escherichia coli = experiment: Antimicrobial activity against Escherichia coli at 50 ug/6 mm disk by paper disk method; type: functional, organism-based
HeLa = experiment: Cytotoxicity against human HeLa cells by MTT assay; type: functional, cell-based

With `COc1ccc(Cc2[nH]/c(=N\C3=NC(=O)N(C)C3=O)n(C)c2Cc2cc(OC)c(O)c(OC)c2)cc1` [NAAMIDINE H] as the compound, how does the Activity (Escherichia coli) read?
Its Activity is “inactive”.

What about the IC50 (HeLa) of the same compound?
The IC50 was 5.6 mg/L (≈ 11.3 µM).

What does the source list for `C/N=C1N=C(/N=c2\[nH]c(Cc3ccc(OC)cc3)c(Cc3cc(OC)c(O)c(OC)c3)n2C)C(=O)N\1C` [NAAMIDINE I]?
Activity (Escherichia coli): inactive; IC50 (HeLa): 15 mg/L (≈ 29.6 µM)
